Data: US12448389B2, “BRM targeting compounds and associated methods of use” (Prelude Therapeutics Incorporated, priority 2020, dated 2025)

Assays:
SMARCA2-HiBiT = target: T1, SMARCA2-HiBiT (Homo sapiens, UniProt P51531); assay: SMARCA2 HiBiT degradation assay in HeLa cells; type: cell-based; conditions: 18 hours incubation; for DC50: read-out: HeLa_HiBit-SM2 DC50; for Dmax: HeLa, read-out: HeLa-HiBit-SM2 Dmax (%)
T1 construct: SMARCA2-HiBiT knock-in Hela monoclonal cell (CS302366); host or cells: HeLa monoclonal knock-in line (CRISPR HiBiT knock-in at the endogenous locus, heterozygous)
T1 sequence (P51531 whole entry): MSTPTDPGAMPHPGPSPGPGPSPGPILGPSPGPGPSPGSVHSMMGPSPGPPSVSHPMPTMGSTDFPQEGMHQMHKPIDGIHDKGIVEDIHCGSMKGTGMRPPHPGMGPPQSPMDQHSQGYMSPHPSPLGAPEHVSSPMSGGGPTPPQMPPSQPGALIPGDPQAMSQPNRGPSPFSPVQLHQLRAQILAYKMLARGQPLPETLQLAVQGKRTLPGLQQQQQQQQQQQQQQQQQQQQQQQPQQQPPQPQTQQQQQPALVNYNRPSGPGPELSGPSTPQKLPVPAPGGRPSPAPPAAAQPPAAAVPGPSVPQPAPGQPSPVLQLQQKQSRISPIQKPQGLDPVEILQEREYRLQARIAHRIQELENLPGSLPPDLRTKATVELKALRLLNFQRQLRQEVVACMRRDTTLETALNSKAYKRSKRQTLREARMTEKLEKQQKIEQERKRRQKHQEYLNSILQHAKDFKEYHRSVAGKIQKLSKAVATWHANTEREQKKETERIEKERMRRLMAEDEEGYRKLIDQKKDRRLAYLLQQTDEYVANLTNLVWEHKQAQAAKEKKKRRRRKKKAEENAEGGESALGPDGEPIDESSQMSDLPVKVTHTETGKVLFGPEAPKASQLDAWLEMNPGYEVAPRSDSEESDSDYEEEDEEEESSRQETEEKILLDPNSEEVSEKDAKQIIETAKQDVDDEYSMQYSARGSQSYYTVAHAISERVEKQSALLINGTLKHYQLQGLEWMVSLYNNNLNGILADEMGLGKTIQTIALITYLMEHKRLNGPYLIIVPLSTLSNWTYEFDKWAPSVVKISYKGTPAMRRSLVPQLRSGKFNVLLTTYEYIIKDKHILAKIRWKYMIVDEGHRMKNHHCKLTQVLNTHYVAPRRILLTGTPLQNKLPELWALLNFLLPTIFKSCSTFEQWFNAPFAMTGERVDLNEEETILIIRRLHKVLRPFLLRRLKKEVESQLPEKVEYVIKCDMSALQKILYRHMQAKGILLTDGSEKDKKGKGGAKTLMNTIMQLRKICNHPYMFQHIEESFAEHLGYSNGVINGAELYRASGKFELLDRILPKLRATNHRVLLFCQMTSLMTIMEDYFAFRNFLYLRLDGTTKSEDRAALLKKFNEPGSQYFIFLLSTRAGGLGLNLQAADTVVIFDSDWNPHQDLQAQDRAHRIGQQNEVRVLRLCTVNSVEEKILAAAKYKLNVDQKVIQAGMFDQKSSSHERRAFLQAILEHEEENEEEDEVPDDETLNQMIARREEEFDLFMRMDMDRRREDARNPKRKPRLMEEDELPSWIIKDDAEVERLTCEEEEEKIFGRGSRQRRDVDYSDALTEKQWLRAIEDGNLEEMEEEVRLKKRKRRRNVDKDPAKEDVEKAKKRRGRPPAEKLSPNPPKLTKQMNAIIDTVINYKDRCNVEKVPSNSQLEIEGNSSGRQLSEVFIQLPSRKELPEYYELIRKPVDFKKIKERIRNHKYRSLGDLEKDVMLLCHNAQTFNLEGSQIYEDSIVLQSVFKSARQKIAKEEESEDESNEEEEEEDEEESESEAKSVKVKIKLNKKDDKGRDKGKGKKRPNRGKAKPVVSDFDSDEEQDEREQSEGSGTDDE
In short: (§1)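 HeLa monoclonal lines with heterozygous HiBiT knock-in were seeded at 2500 cells/well in EMEM with 10% FBS and treated with compound for 18 h at 37 °C. Remaining tagged protein was measured by Nano-Glo HiBiT lytic luminescence after 30–60 min at RT, and values came from curve fitting.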

SMARCA4-HiBiT = target: T2, SMARCA4-HiBiT (Homo sapiens, UniProt P51532); assay: SMARCA4 HiBiT degradation assay in HeLa cells; type: cell-based; conditions: 18 hours incubation; for DC50: read-out: HeLa-HiBit-SM4 DC50; for Dmax: HeLa, read-out: HeLa-HiBit-SM4 Dmax (%)
T2 construct: SMARCA4-HiBiT knock-in Hela monoclonal cell (CS3023226); host or cells: HeLa monoclonal knock-in line (CRISPR HiBiT knock-in at the endogenous locus, heterozygous)
T2 sequence (P51532 whole entry): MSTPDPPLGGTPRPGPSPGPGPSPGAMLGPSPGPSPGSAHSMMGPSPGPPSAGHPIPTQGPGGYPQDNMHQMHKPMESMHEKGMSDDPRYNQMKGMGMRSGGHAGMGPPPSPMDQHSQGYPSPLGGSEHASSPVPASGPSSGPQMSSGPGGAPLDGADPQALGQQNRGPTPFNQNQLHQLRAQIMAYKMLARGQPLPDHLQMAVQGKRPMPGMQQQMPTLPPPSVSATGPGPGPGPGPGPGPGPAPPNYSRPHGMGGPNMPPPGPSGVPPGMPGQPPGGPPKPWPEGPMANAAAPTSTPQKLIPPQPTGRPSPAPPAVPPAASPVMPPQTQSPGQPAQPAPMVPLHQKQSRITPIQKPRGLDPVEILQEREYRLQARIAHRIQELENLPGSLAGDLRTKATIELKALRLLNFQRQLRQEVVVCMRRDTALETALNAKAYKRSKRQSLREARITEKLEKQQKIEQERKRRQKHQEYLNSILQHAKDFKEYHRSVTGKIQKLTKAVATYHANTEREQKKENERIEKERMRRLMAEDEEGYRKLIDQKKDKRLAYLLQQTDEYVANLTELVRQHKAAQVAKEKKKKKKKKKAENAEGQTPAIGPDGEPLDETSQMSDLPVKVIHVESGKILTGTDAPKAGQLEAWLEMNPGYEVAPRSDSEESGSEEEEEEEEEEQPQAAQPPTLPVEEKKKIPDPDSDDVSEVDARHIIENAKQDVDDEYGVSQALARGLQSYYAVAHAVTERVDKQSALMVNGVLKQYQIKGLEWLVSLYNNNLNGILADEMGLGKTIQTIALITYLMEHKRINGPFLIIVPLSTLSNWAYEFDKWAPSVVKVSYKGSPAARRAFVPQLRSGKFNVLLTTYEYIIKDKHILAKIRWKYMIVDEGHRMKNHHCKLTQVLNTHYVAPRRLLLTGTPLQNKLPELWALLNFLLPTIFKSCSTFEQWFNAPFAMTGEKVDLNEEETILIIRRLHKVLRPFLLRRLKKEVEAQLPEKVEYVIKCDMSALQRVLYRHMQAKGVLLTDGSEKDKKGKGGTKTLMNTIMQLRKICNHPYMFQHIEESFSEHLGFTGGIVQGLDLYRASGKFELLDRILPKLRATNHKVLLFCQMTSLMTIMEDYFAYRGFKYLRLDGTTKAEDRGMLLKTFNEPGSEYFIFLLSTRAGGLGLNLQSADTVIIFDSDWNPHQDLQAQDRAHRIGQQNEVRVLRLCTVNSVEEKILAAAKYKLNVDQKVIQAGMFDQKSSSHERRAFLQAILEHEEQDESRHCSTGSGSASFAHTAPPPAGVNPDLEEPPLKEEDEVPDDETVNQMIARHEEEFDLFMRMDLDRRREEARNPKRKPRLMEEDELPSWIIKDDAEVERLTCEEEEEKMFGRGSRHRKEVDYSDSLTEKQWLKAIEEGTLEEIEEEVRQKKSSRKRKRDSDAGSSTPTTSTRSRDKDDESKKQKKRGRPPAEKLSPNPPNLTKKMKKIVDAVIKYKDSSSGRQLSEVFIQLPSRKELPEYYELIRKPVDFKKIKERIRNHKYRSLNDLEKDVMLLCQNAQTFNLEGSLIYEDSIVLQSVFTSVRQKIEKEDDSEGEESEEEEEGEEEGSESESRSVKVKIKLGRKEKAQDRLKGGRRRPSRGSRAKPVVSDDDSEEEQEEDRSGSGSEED
In short: as §1

SMILES	DC50 (SMARCA2-HiBiT) [µM]	Dmax (SMARCA2-HiBiT) [%]	DC50 (SMARCA4-HiBiT) [µM]	Dmax (SMARCA4-HiBiT) [%]	HeLa-HiBit-SM4 Dmax (%) (SMARCA4-HiBiT)
O=C1CCC(N2Cc3cc(CN4CCC(CCCN5CCC(N6CCN7c8cc(-c9ccccc9O)nnc8NC[C@H]7C6)CC5)CC4)ccc3C2=O)C(=O)N1 (stereo partly drawn) [Example 65, 3-(5-((4-(3-(4-((S)-2-(2-hydroxyphenyl)-5,6,6a,7,9,10-hexahydro-8H-pyrazino[1′,2′:4,5]pyrazino[2,3-c]pyridazin-8-yl)piperidin-1-yl)propyl)piperidin-1-yl)methyl)-1-oxoisoindolin-2-yl)piperidine-2,6-dione]	< 0.01	> 85	< 0.01	> 85	
O=C1CCC(N2C(=O)c3cc(F)c(N4CCC(CN5CCC(CN6CCN7c8cc(-c9ccccc9O)nnc8NC[C@H]7C6)CC5)CC4)cc3C2=O)C(=O)N1 (stereo partly drawn) [Example 164, 2-(2,6-dioxopiperidin-3-yl)-5-fluoro-6-[4-[[4-[[(10S)-4-(2-hydroxyphenyl)-1,5,6,8,12-pentazatricyclo[8.4.0.02,7]tetradeca-2,4,6-trien-12-yl]methyl]piperidin-1-yl]methyl]piperidin-1-yl]isoindole-1,3-dione]	< 0.01	> 85	< 0.01	75 to 85	
O=C1CCC(N2Cc3cc(N4CCN(CC5CCN(CCN6CCN7c8cc(-c9ccccc9O)nnc8NC[C@H]7C6)CC5)CC4)ccc3C2=O)C(=O)N1 (stereo partly drawn) [Example 217, 3-(5-(4-((1-(2-((S)-2-(2-hydroxyphenyl)-5,6,6a,7,9,10-hexahydro-8H-pyrazino [1′,2′:4,5]pyrazino[2,3-c]pyridazin-8-yl)ethyl)piperidin-4-yl)methyl)piperazin-1-yl)-1-oxoisoindolin-2-yl)piperidine-2,6-dione]	< 0.01	> 85	< 0.01	> 85	
O=C1CCC(N2C(=O)c3ccc(N4C[C@@H]5CN(C6CCC(C(=O)N7CCN8c9cc(-c%10ccccc%10O)nnc9NC[C@H]8C7)CC6)C[C@H]5C4)cc3C2=O)C(=O)N1 (stereo partly drawn) [Example 98, 2-(2,6-dioxopiperidin-3-yl)-5-((3aS,6aS)-5-(4-((S)-2-(2-hydroxyphenyl)-6,6a,7,8,9,10-hexahydro-5H-pyrazino[1′,2′:4,5]pyrazino[2,3-c]pyridazine-8-carbonyl)cyclohexyl)hexahydropyrrolo[3,4-c]pyrrol-2(1H)-yl) isoindoline-1,3-dione]	< 0.01	75 to 85	< 0.01	> 85	
O=C1CC[C@@H](N2Cc3cc(OCCN4CCC(N5CCN6c7cc(-c8ccccc8O)nnc7NC[C@H]6C5)CC4)ccc3C2=O)C(=O)N1 [Example 239, (R)-3-(5-(2-(4-((S)-2-(2-hydroxyphenyl)-5,6,6a,7,9,10-hexahydro-8H-pyrazino[1′,2′:4,5]pyrazino[2,3-c]pyridazin-8-yl)piperidin-1-yl)ethoxy)-1-oxoisoindolin-2-yl)piperidine-2,6-dione]	< 0.01	> 85	< 0.01	50 to 75	
O=C1CCC(N2C(=O)c3ccc(N4CC[C@H](CN5CCC(C(=O)N6CCN7c8cc(-c9cc(F)ccc9O)nnc8NC[C@H]7C6)CC5)[C@@H](F)C4)cc3C2=O)C(=O)N1 (stereo partly drawn) [Example 279, 2-(2,6-dioxopiperidin-3-yl)-5-((3R,4R)-3-fluoro-4-((4-((S)-2-(5-fluoro-2-hydroxyphenyl)-6,6a,7,8,9,10-hexahydro-5H-pyrazino[1′,2′:4,5]pyrazino[2,3-c]pyridazine-8-carbonyl)piperidin-1-yl)methyl)piperidin-1-yl)isoindoline-1,3-dione]	< 0.01	> 85	< 0.01		C (C=50%<Dmax<=75%)
O=C1CCC(N2C(=O)c3ccc(N4CCOC(CN5C[C@@H]6[C@H](C5)[C@H]6CN5CCN6c7cc(-c8ccccc8O)nnc7NC[C@H]6C5)C4)cc3C2=O)C(=O)N1 (stereo partly drawn) [Example 49, 2-(2,6-dioxopiperidin-3-yl)-5-(2-(((1R,5S,6s)-6-(((S)-2-(2-hydroxyphenyl)-5,6,6a,7,9,10-hexahydro-8H-pyrazino[1′,2′:4,5]pyrazino[2,3-c]pyridazin-8-yl)methyl)-3-azabicyclo[3.1.0]hexan-3-yl)methyl)morpholino)isoindoline-1,3-dione]	< 0.01	> 85	< 0.01	75 to 85	
O=C1CCC(N2C(=O)c3ccc(N4CCN(C5CCN(CCN6CCN7c8cc(-c9ccccc9O)nnc8NC[C@H]7C6)C5)CC4)cc3C2=O)C(=O)N1 (stereo partly drawn) [Example 221, 2-(2,6-dioxopiperidin-3-yl)-5-(4-(1-(2-((S)-2-(2-hydroxyphenyl)-5,6,6a,7,9,10-hexahydro-8H-pyrazino[1′,2′:4,5]pyrazino[2,3-c]pyridazin-8-yl)ethyl)pyrrolidin-3-yl)piperazin-1-yl) isoindoline-1,3-dione]	< 0.01	75 to 85	< 0.01	50 to 75	
O=C1CCC(N2C(=O)c3ccc(N4CCC(CN5CCO[C@@H](CN6CCN7c8cc(-c9ccccc9O)nnc8NC[C@H]7C6)C5)CC4)cc3C2=O)C(=O)N1 (stereo partly shown) [Example 74]	< 0.01	> 85	< 0.01	> 85	
O=C1CCC(N2C(=O)c3ccc(N4CCC(CN5CCC(CN6CCN7c8cc(-c9ccccc9O)nnc8NC[C@H]7C6)C(F)(F)C5)CC4)cc3C2=O)C(=O)N1 (stereo partly drawn) [Example 260, 5-(4-((3,3-difluoro-4-(((S)-2-(2-hydroxyphenyl)-5,6,6a,7,9,10-hexahydro-8H-pyrazino[1′,2′:4,5]pyrazino[2,3-c]pyridazin-8-yl)methyl)piperidin-1-yl)methyl)piperidin-1-yl)-2-(2,6-dioxopiperidin-3-yl)isoindoline-1,3-dione]	< 0.01	75 to 85	0.01 to 0.1	75 to 85	
O=C1CCC(N2C(=O)c3ccc(N4[C@@H]5CC[C@H]4CC(CN4CCC(CN6CCN7c8cc(-c9ccccc9O)nnc8NC[C@H]7C6)CC4)C5)cc3C2=O)C(=O)N1 (stereo partly drawn) [Example 180, 2-(2,6-dioxopiperidin-3-yl)-5-[(1S,5R)-3-[[4-[[(10S)-4-(2-hydroxyphenyl)-1,5,6,8,12-pentazatricyclo[8.4.0.02,7]tetradeca-2,4,6-trien-12-yl]methyl]piperidin-1-yl]methyl]-8-azabicyclo[3.2.1]octan-8-yl]isoindole-1,3-dione]	< 0.01	75 to 85	< 0.01	75 to 85	
O=C1CCC(N2C(=O)c3ccc(N4CCC(N[C@H]5C[C@H](CN6CCN7c8cc(-c9ccccc9O)nnc8NC[C@H]7C6)C5)CC4)cc3C2=O)C(=O)N1 (stereo partly drawn) [Example 77, 2-(2,6-dioxopiperidin-3-yl)-5-(4-(((1S,3r)-3-(((S)-2-(2-hydroxyphenyl)-5,6,6a,7,9,10-hexahydro-8H-pyrazino[1′,2′:4,5]pyrazino[2,3-c]pyridazin-8-yl)methyl)cyclobutyl)amino)piperidin-1-yl)isoindoline-1,3-dione]	< 0.01	> 85	< 0.01	> 85	
O=C1CCC(N2C(=O)c3ccc(OC4CCN(CC5CCN(CCN6CCN7c8cc(-c9ccccc9O)nnc8NC[C@H]7C6)CC5)CC4)cc3C2=O)C(=O)N1 (stereo partly drawn) [Example 216, 2-(2,6-dioxopiperidin-3-yl)-5-((1-((1-(2-((S)-2-(2-hydroxyphenyl)-5,6,6a,7,9,10-hexahydro-8H-pyrazino[1′,2′:4,5]pyrazino[2,3-c]pyridazin-8-yl)ethyl)piperidin-4-yl)methyl)piperidin-4-yl)oxy) isoindoline-N, 3-dione]	< 0.01	> 85	< 0.01	50 to 75	
O=C1CCC(N2Cc3ccc(C4CCN(CCN5CCC(CN6CCN7c8cc(-c9ccccc9O)nnc8NC[C@H]7C6)CC5)CC4)cc3C2=O)C(=O)N1 (stereo partly drawn) [Example 120, 3-(6-(1-(2-(4-(((S)-2-(2-hydroxyphenyl)-5,6,6a,7,9,10-hexahydro-8H-pyrazino[1′,2′:4,5]pyrazino[2,3-c]pyridazin-8-yl)methyl)piperidin-1-yl)ethyl)piperidin-4-yl)-1-oxoisoindolin-2-yl) piperidine-2,6-dione]	< 0.01	> 85	0.01 to 0.1	> 85	
O=C1CCC(N2C(=O)c3ccc(N4CCC(CN5CCN6c7cc(-c8ccccc8O)nnc7NC[C@H]6C5)CC4)cc3C2=O)C(=O)N1 (stereo partly drawn) [Example 157, 2-(2,6-dioxopiperidin-3-yl)-5-(4-(((S)-2-(2-hydroxyphenyl)-5,6,6a,7,9,10-hexahydro-8H-pyrazino[1′,2′:4,5]pyrazino[2,3-c]pyridazin-8-yl)methyl)piperidin-1-yl)isoindoline-1,3-dione]	< 0.01	75 to 85	0.01 to 0.1	50 to 75	
O=C1CCC(N2C(=O)c3ccc(N4CCC(CN5CCC(C(=O)N6CCN7c8cc(-c9ccccc9O)nnc8NC[C@H]7C6)CC5)C(F)(F)C4)cc3C2=O)C(=O)N1 (stereo partly drawn) [Example 196, 5-[3,3-difluoro-4-[[4-[(10S)-4-(2-hydroxyphenyl)-1,5,6,8,12-pentazatricyclo[8.4.0.02,7]tetradeca-2(7),3,5-trien-12-carbonyl]piperidin-1-yl]methyl]piperidin-1-yl]-2-(2,6-dioxopiperidin-3-yl) isoindole-1,3-dione]	< 0.01	75 to 85	0.01 to 0.1	50 to 75	
